Test results published in the METLIN SMRT retention time set (Domingo-Almenara et al. 2019).

Assay: gradient 5% acetonitrile 3 min, to 50% in 2 min, to 85% in 15 min, held 3 min, 100 µL/min
Details: column: Zorbax Extend-C18 2.1 x 50 mm; eluents: water / acetonitrile, 0.1% formic acid
Outline: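 Mixtures of ~100 pure standards were chromatographed on a Zorbax Extend-C18 column (2.1 × 50 mm, 1.8 μm) at 100 μL/min using water and acetonitrile, each with 0.1% formic acid. Detection used a quadrupole time-of-flight mass spectrometer in positive and negative ionization mode, and data collection spanned 3 months. Retention time was obtained from adduct peaks picked computationally and each checked manually.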

Structure (SMILES) | RP-LC retention time [s]
COc1cccc(N2CC(c3nc4ccccc4n3CC(=O)N3CCCC3)CC2=O)c1 (stereo not given) | 619
O=C(Nc1ccc(F)cc1)c1c(O)c2cccnc2n(-c2cccc(F)c2)c1=O | 1220
O=C(Cc1ccc(Cl)cc1)N1CCCN(C2CCN(CC3CC3)C2=O)CC1 (stereo not given) | 581
CC(=O)c1sc(NC(=O)c2cc(Cl)ccc2Cl)nc1C | 817
CCOc1ccc(NC(=O)COc2cc(C(=O)OC)nc3ccc(OC)cc23)cc1 | 817
O=C(Cc1cccs1)N1CCN(C(=O)c2cc3cc(Br)ccc3[nH]2)CC1 | 866
Cn1ccc(CN2CCN(Cc3cccc(F)c3)CC2)cc1=O | 558
O=C(CSc1ccc(N2CCCC(C(=O)NC3CC3)C2)nn1)Nc1cccc(C(F)(F)F)c1 (stereo not given) | 687
COc1ccc(OC)c(NC(=O)N2CCN(Cc3cn(C)c4ccccc34)CC2)c1 | 664
O=C(NC1CCCC1)N1CCC[C@H]1c1nc(-c2ccccc2)n[nH]1 | 697
O=C(Nc1ccc(SCc2ccccc2F)nn1)c1cccs1 | 942
c1ccc(-c2nc(N3CCCCCC3)c3ccccc3n2)cc1 | 768
CC(=O)Nc1ccc(OC(=O)c2ccccc2OC(C)=O)cc1 | 853
CCN1CCN(C(=O)C2CCc3sc(C(=O)N(CC)CC)cc3C2)CC1 (stereo not given) | 683
COc1ccccc1C(=O)NCc1ccc2c(c1)ncn2C(C)C | 603
CSc1ccccc1CN1CCC(CNC(=O)C(=O)NCc2ccc(F)cc2)CC1 | 595
O=C(Nc1cnn(-c2ncc(N3CCCCC3)cn2)c1)Nc1ccccc1C(F)(F)F | 891
CCC(C(=O)N1CCC(c2cc3n(n2)CCCNC3=O)CC1)c1ccccc1 (stereo not given) | 694
Cc1ccc(Nc2c(-c3ccc(C)cc3)nc3cccc(C)n23)cc1 | 782
CC1(C(=O)NCc2ccccc2)Oc2cccnc2NC1=O (stereo not given) | 638
CC(=O)c1ccc(N2C(=O)Cn3cccc3C2C(=O)NC2CCC(C)CC2)cc1 (stereo not given) | 869

Structure (SMILES) | RP-LC retention time [s]
CCOc1cc(C(=O)Nc2c(-c3ccc(OC)cc3)nc3cc(C)ccn23)cc(OCC)c1OCC | 803
Cc1noc([C@@H]2CN(Cc3c(F)cccc3Cl)C[C@H]2CO)n1 | 605
CNC(=O)c1cc(Cc2ccc3nc(Nc4cccc(C(F)(F)F)c4)[nH]c3c2)ccn1 | 680
CCCCN1C(=O)C(CC(=O)NCC(C)C)Sc2ncccc21 (stereo not given) | 784
CC(=O)c1cccc(NC(=O)CN2C(=O)COc3ccc(C(=O)N(C)C)cc32)c1 | 651
O=C(Nc1ccc(F)c(F)c1)c1c(O)c2cccnc2n(-c2cccc(F)c2)c1=O | 1260
CCN1CCN(C2CCN(C(=O)c3cccc(Br)c3)CC2)C1=O | 720
Cc1noc(-c2ccc(NC(=O)c3cnn(-c4ccccc4)n3)cc2)n1 | 980
Cc1c(CNCc2ccccn2)c(C(=O)O)c(C)n1Cc1ccc(F)cc1 | 670
CNC(=O)CCNc1c(-c2cccc(F)c2)nc2cnccn12 | 606
COc1cc(OC)cc(C(=O)N2CCN=C2N2CCCCC2)c1 | 646
COc1ncc(C(=O)NCc2ccccc2Cl)cn1 | 737
COc1ccc(CC(=O)NCCc2c[nH]c3ccc(Cl)cc23)cc1 | 848
COc1cc(OC)cc(C(=O)N2CCN(c3cc(=O)n(C(C)C)c(=O)n3C(C)C)CC2)c1 | 855
O=C(NC1CCN(c2cc(-c3ccc(F)cc3)[nH]n2)CC1)C1COc2ccccc2O1 (stereo not given) | 824
CCCSCCCNC(=O)Cn1cnc2nc3c(cc2c1=O)CC(C)CC3 (stereo not given) | 778
CCn1cc(-c2ccc(Cl)cc2)cc1C(=O)NCc1cccnc1 | 738
CCN(C(=O)c1cc2c(s1)N(CCOC)CCCC2)C(C)C | 1070
O=C(CCc1nnn2c1CN(C(=O)Cc1c[nH]c3ccccc13)CC2)N1CCCC1 | 641
CC(NC(=O)Cn1cc(C(=O)c2ccco2)c2ccccc21)c1ccc2c(c1)OCCCO2 (stereo not given) | 837
O=C1c2ccccc2C(=O)c2sc(Nc3ccc(Cl)c(Cl)c3)nc21 | 1140

Structure (SMILES) | RP-LC retention time [s]
CNC(=O)C1CN(C(=O)c2ccccc2C(F)(F)F)CC12CCCC2 (stereo not given) | 609
O=C1CCCC(=O)N1CCS(=O)(=O)Nc1ccc(Cl)c(N2CCCS2(=O)=O)c1 | 657
COC[C@@H]1CN(Cc2cccc(C#N)c2)C[C@H]1c1ccccn1 | 608
Nc1nc(-c2nn(Cc3ccccc3F)c3ncccc23)ncc1C1CC1 | 720
CCN(CC)C(=O)c1ccc2c(c1)nnn2CCNC(=O)Nc1ccc(Br)cc1F | 787
CN(C)C(=O)c1cn(C2CN(C(=O)Nc3ccccc3F)C2)nn1 | 629
COc1cccc(-c2nn3c(COc4ccc(Br)cc4)nnc3s2)c1OC | 1130
COCC1CN(C(=O)c2ccc3cc[nH]c3c2)CC12CCOCC2 (stereo not given) | 680
COc1ccc2cccc(NC(=O)c3c(F)cccc3Cl)c2n1 | 1090
COCc1cc(=O)n(CC(=O)NCc2ccc(F)c(Cl)c2)c(N)n1 | 625
CCCNC(=O)N1CCCN(C2CCN(Cc3ccccc3)C2=O)CC1 (stereo not given) | 535
CCC(C)NC(=O)NCCc1nc2cccnc2n1Cc1ccccc1 (stereo not given) | 685
CCOc1ccccc1NC(=O)N1CCN(c2ccc(=O)n(-c3ccc(F)cc3)n2)CC1 | 875
CCCN1C(=O)C(CC(=O)N2CCCC2)Sc2ncccc21 (stereo not given) | 691
CN(C)C[C@@H]1CN(c2ncccn2)C[C@H]1NC(=O)c1ccc2ccccc2n1 | 595
COc1ccc2c(c1)[C@]13CCCC[C@@H]1[C@H](C2)N(C)CC3 | 732
CCCN1C(=O)CCc2cc(NS(=O)(=O)c3ccc(CC(C)C)cc3)ccc21 | 1030
CCS(=O)(=O)c1ccc(-c2ccc(NS(C)(=O)=O)cc2)nn1 | 643
Cc1nnsc1C(=O)NCc1c(F)cccc1Cl | 861
O=C(Cn1cnc(-c2nc(-c3ccccc3)cs2)c1)Nc1cc(F)ccc1F | 825

The next lines start with the values.

RP-LC retention time [s] | Structure (SMILES)
520 | CCCCNC(=O)CCC(=O)Nc1ccc2nc(N3CCN(C)CC3)cc(C)c2c1
753 | Cc1cc(C)c2c(-n3cccc3)nn(CC(=O)NCC3CCCO3)c2n1 (stereo not given)
1020 | Cc1ccc(-c2csc(-c3cccn3CC(=O)NCC3CCCO3)n2)cc1 (stereo not given)
689 | CC1CCN(S(=O)(=O)c2ccc(-c3nnc(C(=O)NCCCN4CCCC4)o3)cc2)CC1
752 | O=C(Nc1ccc2c(c1)CN(C(=O)COc1ccccc1)CCO2)C1CC1
1090 | CCc1nc(-c2csc(S(=O)(=O)N3CCC(C(=O)Nc4ccc(C)cc4C)CC3)c2)no1
698 | CCOc1ccc(NC(=O)Cn2cnc3nc(N4CCCC(C(=O)NC(C)C)C4)sc3c2=O)cc1 (stereo not given)
765 | Cc1ccc(NS(=O)(=O)c2cc3n(c2)CCN(C(C)C)C3=O)c(F)c1
996 | Cc1ccc(C)c(Cn2nc3ccc(S(=O)(=O)N4CCSCC4)cn3c2=O)c1
769 | O=C(NCc1ccccc1Cl)C1CCN(c2cnc3nccnc3c2)CC1
710 | Cc1oc(-c2[nH]ncc2C(=O)N2CCCC2)cc1S(=O)(=O)NCc1ccc(F)cc1F
894 | Cc1ccc(S(=O)(=O)N(C)CC2CCOCC2)cc1Cl
1000 | Cc1ccc(C)c(N2CCN(c3ccnc(SCC(=O)Nc4ccc(F)cc4F)n3)CC2)c1
885 | Cc1cc(OCC(=O)Nc2cccc(C)c2C)nc(N2CCN(c3ccccc3)CC2)n1
733 | Cc1ccc(CN2CCN(CC(=O)Nc3ccc4c(c3)OCCO4)C(=O)C2=O)cc1
722 | CCn1cc(CN2CCC(C(=O)NCc3ccco3)CC2)c2cc(Cl)ccc21
683 | Cc1cnc(C(=O)NC2C[C@H]3CC[C@@H](C2)N3C(=O)c2ccc(C)s2)cn1 (stereo not given in full)
1030 | CCc1nc2cc(-c3noc(Cc4ccc(OC)cc4)n3)ccc2o1
602 | Cc1noc(C)c1Cc1ccc(C(=O)N(C)C2CCc3nnc(C)n3CC2)o1 (stereo not given)
624 | Cc1cc(C(=O)Nc2ccc3c(c2)C(=O)N(C)CCO3)no1
891 | Cc1cc2c(cc1S(=O)(=O)N1CCCC1C(=O)Nc1cccc(Cl)c1C)OC(C)C(=O)N2 (stereo not given)
1040 | CC(C)n1c(=O)sc2cc(S(=O)(=O)N3CCC(C(=O)NC4CCCCCCC4)CC3)ccc21
663 | O=C(O)C1CCN(S(=O)(=O)c2cccc([N+](=O)[O-])c2)CC1
1020 | Cc1ccc(C)c(N2CCN(C(=O)c3[nH]c(C)c(S(=O)(=O)N4CCCC4)c3C)CC2)c1
932 | O=C(Nc1ccc2c(c1)CN(S(=O)(=O)c1ccc3c(c1)CCC3)CCO2)C1CC1
605 | CN1CCN(C(=O)c2ccc(S(=O)(=O)c3ccccc3)s2)CC1
758 | CCCN1CCn2cc(S(=O)(=O)Nc3cccc(C)c3C)cc2C1=O
909 | O=C(Nc1ccc(F)cc1)c1nnc(C(=O)N2CCC(C(=O)NCc3ccccn3)CC2)s1
